{"source": "patent US20110224297A1", "about": "“Methods of administering prostratin and structural analogs thereof” (priority 2008, published 2011)", "key": {"rats": {"test_system": "rats", "experiment": "DART work in rats (IV injection)", "assay_type": "in vivo", "details": "for maximum tolerated i.v. dose: iv bolus", "description": "Extrapolation was performed from the DART work that was all done in rats as an IV injection (not infusion). Infusions and injections are by definition 100% bio-available meaning it all gets in.\nThe oral doses were estimated based on a maximum tolerated i.v. dose of 0.4 mg/kg from the DART work in rats, but an oral bio-availability of only 29%. Thus, the maximum tolerated i.v. dose was multiplied by three (i.e., 0.4 mg/kg times 3 equals 1.2 mg/kg as the equivalent oral dose). The purpose of the two lower oral doses (both 0.8 mg/kg, therefore a total of 1.6 mg/kg) and the infusion (0.8 mg/kg over three hours) was to see if the maximum tolerated dose could be exceeded by dividing up the oral into two times 75% the max tolerated dose or as an infusion over 3 hours."}, "[1]": {"experiment": "Solubility limit after dosing in culture medium", "assay_type": "physicochemical", "details": "plasma or biological fluid, kinetic from dmso stock, dosing volume of 1%", "description": "(§1) Dimethylsulfoxide (DMSO) was the vehicle of choice for this study. […] The stock solution and its dilutions were dosed using a dosing volume of 1% (10 μL/ml) and the vehicle control cultures were treated with 10.0 μL/ml of DMSO."}, "[2]": {"experiment": "In vitro metabolism in rat liver microsomes", "assay_type": "in vitro ADME", "text": "In vitro metabolism of prostratin was investigated using mouse, rat, monkey, and human liver microsomes (Gentest). […] Attempts to identify the metabolite by LC/MS/MS were unsuccessful due to the low amounts present in the reaction mixtures (FIG. 1)."}, "[3]": {"experiment": "Stability in PBS (phosphate buffer saline)", "assay_type": "physicochemical", "description": "Prostratin is stable in plasma and buffer as well as in the stability formulation (see below) developed for in vivo studies in mice. Stability tests for prostratin in mouse and monkey plasma were done using two concentration (1 and 10 mg/ml) and two temperatures (Room Temperature (RT) and 37° C.). The only loss of drug occurred in mouse plasma after 24 hr incubation at 37° C. This represented only 14% decrease in parent drug peak area over this time frame. Prostratin is stable in PBS (phosphate buffer saline) at pH 2 and pH 7."}, "[4]": {"experiment": "Stability in the formulation vehicle for in vivo studies", "assay_type": "physicochemical", "details": "10% DMSO: 10% Cremophor: 80%:0.9% Saline; even at 37° C. for at least 2 hr", "description": "Drug was dissolved in vehicle (10% DMSO: 10% Cremophor: 80%:0.9% Saline) and then incubated at four different temperatures (37° C., RT, 4° C., and −20° C.) for up to 2 hr. Prostratin is stable in this formulation even at 37° C. for at least 2 hr."}, "[5]": {"experiment": "Dose-range finding study in monkeys and determination of MTD", "assay_type": "in vivo, rhesus macaque monkeys", "details": "rhesus monkey, in vivo", "description": "(§2) After a suitable wash-out period (15-20 days), monkeys that previously received 0.1 mg/kg, were administered a dose of 0.6 mg/kg, and those that previously received 0.4 mg/kg, were administered a second dose of 0.4 mg/kg. Blood was collected as before for clinical pathology and cytokine assay analysis. There was no mortality in this study. However both animals receiving 0.6 mg/kg prostratin required more time (2-4 times as much) to recover from Ketamine (used as a chemical restraint while weighing and dosing) after the second dosing compared with the initial doses. On day 3, all monkeys had elevated (2-3 fold) fibrinogen levels and there was evidence of dose-dependent hepatotoxicity."}, "rhesus macaque monkeys": {"test_system": "rhesus macaque monkeys", "experiment": "Dose-range finding study in monkeys and determination of MTD", "assay_type": "in vivo", "description": "as §2"}, "[6]": {"test_system": "cultured human peripheral blood lymphocytes", "experiment": "Chromosomal aberrations in cultured human peripheral blood lymphocytes", "assay_type": "cell-based", "description": "The objective of this in vitro assay was to evaluate the ability of prostratin to cause structural chromosomal aberrations in cultured human lymphocytes with and without an exogenous metabolic activation system.\nas §1\nIn the initial chromosomal aberrations assay, the treatment period was for 3 hours with and without metabolic activation, and cultures were harvested ˜22 hours from the initiation of treatment. Replicate cultures of human whole blood lymphocytes were incubated with test article at 23.7, 33.9, 48.4, 69.2, 98.9, 141, 202, 288, 412, 588, 840, 1200, 1720, 2450, and 3500 μg/ml with and without metabolic activation. Cultures treated with concentrations of 412, 588, 840, and 1200 μg/ml without metabolic activation and 588, 840, 1200, and 1720 μg/ml with metabolic activation were analyzed for chromosomal aberrations.\nIn the confirmatory chromosomal aberrations assay, the treatment period was ˜22 hours without metabolic activation and 3 hours with metabolic activation, and cultures were harvested ˜22 hours from the initiation of treatment. Replicate cultures of human whole blood lymphocytes were incubated with test article at 15.6, 31.3, 62.5, 125, 188, 250, 375, 500, 750, 1000, 1400, and 1700 μg/ml without metabolic activation and 250, 500, 1000, 1400, 1700, 2000, and 2500 μg/ml with metabolic activation. Cultures treated with concentrations of 125, 250, 500, and 1400 μg/ml without metabolic activation and 1400, 1700, 2000, and 2500 μg/ml with metabolic activation were analyzed for chromosomal aberrations.\nFor all treatment conditions, the vehicle and negative control cultures were within the expected range and the historical control data and the positive control cultures induced significant increases in chromosomal aberrations."}}, "note": "Like-named read-outs stand apart in the source and are kept apart here."}
{"smiles": "CC(=O)O[C@@]12C[C@@H](C)[C@@]3(O)[C@@H](C=C(CO)C[C@]4(O)C(=O)C(C)=C[C@@H]34)[C@@H]1C2(C)C", "note": "[prostratin, 12-deoxyphorbol 13-acetate]", "values": [{"measurement": "oral bio-availability", "setting": "rats", "value": 29, "unit": "%"}, {"measurement": "maximum tolerated i.v. dose", "setting": "rats", "value": 0.4, "unit": "mg/kg"}, {"measurement": "maximum tolerated i.v. dose", "setting": "rats; listed as Prostratin", "value": "Dosages in Male Rats (MTD via iv bolus dose: 0.4 mg/kg)"}, {"measurement": "solubility", "setting": "[1]", "value": "< 3500", "unit": "µg/mL"}, {"measurement": "metabolism (time-dependent loss of parent compound)", "setting": "[2]", "value": "substantially less"}, {"measurement": "stability in PBS", "setting": "[3]; pH 2", "value": "stable"}, {"measurement": "stability in PBS", "setting": "[3]; pH 7", "value": "stable"}, {"measurement": "stability in formulation", "setting": "[4]", "value": "stable"}, {"measurement": "MTD at 15 days", "setting": "[5]; both sexes, iv, monkeys, single bolus i.v. dose, read-out: MTD", "value": "0.4 to 0.6", "unit": "mg/kg"}, {"measurement": "MTD at 15 days", "setting": "[5]; intravenous, as restated in Example 13, read-out: MTD later found in monkeys at NIH", "value": "0.2 to 0.4", "unit": "mg/kg"}, {"measurement": "time to recover from Ketamine compared with the initial doses", "setting": "rhesus macaque monkeys; 0.6 mg/kg", "value": "2-4 times"}, {"measurement": "increase in level of ALT and AST over baseline", "setting": "rhesus macaque monkeys; 0.6 mg/kg dose group, day 3", "value": "25-50 fold"}, {"measurement": "time after which plasma drug level is undetectable", "setting": "rhesus macaque monkeys; 0.1 and 0.4 mg/kg i.v. bolus, day 1", "value": 4, "unit": "h"}, {"measurement": "reversibility of toxicities", "setting": "rhesus macaque monkeys; all clinical pathology measurements normal by day 15", "value": "reversible"}, {"measurement": "elevation of fibrinogen levels", "setting": "rhesus macaque monkeys; day 3, all monkeys", "value": "2-3 fold"}, {"measurement": "CK and LD levels", "setting": "rhesus macaque monkeys; day 3, dose-dependent", "value": "increases"}, {"measurement": "level of IL-6", "setting": "rhesus macaque monkeys; female monkeys, 0.4 and 0.6 mg/kg", "value": "increase"}, {"measurement": "mortality", "setting": "rhesus macaque monkeys; i.v. bolus 0.1, 0.4 and 0.6 mg/kg", "value": "no mortality"}, {"measurement": "toxicity at the initial doses", "setting": "rhesus macaque monkeys; single intravenous bolus 0.1 or 0.4 mg/kg", "value": "absence of toxicity"}, {"measurement": "cells with chromosomal aberrations, polyploidy, or endoreduplication", "setting": "[6]; confirmatory assay, ~22 hours without and 3 hours with metabolic activation, 125-1400 μg/ml without, 1400-2500 μg/ml with", "value": "No significant increase"}, {"measurement": "cells with chromosomal aberrations, polyploidy, or endoreduplication", "setting": "[6]; initial assay, 3 hours with and without metabolic activation, 412-1200 μg/ml without, 588-1720 μg/ml with", "value": "No significant increase"}, {"measurement": "induction of chromosomal aberrations, overall", "setting": "[6]; without and with an exogenous metabolic activation system", "value": "negative"}]}
